21 molecules from US20070021435A1, “AMINOPYRIMIDINES AS KINASE MODULATORS” (priority 2005, published 2007) can be followed below.

T2 sequence (Q16620 526-822 limits assumed): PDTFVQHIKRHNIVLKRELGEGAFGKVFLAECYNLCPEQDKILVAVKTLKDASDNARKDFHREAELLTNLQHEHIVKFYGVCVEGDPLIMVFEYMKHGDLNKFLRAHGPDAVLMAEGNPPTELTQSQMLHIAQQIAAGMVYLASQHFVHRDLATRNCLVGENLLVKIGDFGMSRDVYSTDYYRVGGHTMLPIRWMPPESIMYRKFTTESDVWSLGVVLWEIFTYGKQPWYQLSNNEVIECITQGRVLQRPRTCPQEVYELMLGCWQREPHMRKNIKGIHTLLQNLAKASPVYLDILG
T1 sequence (P10721 589-937 limits assumed): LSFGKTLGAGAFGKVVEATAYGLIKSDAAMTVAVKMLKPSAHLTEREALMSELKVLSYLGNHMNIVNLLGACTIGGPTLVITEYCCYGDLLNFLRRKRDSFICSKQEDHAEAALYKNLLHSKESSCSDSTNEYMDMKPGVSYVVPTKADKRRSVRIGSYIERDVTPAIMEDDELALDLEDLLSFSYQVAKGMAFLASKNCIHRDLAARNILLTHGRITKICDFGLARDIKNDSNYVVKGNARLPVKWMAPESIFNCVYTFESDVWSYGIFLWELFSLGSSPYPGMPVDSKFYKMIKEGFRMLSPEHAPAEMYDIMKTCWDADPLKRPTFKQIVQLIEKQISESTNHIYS

The first experiment concerns the target T1, isolated kinase domain of the human c-kit receptor (Homo sapiens, UniProt P10721).
T1 construct: isolated kinase domain of the human c-kit receptor; purchased ProQinase lot SP005
Description: c-Kit fluorescence polarization kinase assay. It is filed as biochemical. The note with it: 1 nM c-kit, 50 uM ATP, 45 minutes; uncertainty ±10%. The protocol: The compounds of the present invention are also specific inhibitors of c-Kit. Selection of preferred compounds of Formula I for use as c-Kit inhibitors was performed in the following manner using an in vitro kinase assay to measure inhibition of the isolated kinase domain of the human c-kit receptor in a fluorescence polarization (FP) protocol. The c-kit assay utilized the fluorescein-labeled phosphopeptide and the anti-phosphotyrosine antibody included in the Panvera Phospho-Tyrosine Kinase Kit (Green) supplied by Invitrogen. When c-kit phosphorylated the poly Glu4Tyr, the fluorescein-labeled phosphopeptide was displaced from the anti-phosphotyrosine antibody by the phosphorylated poly Glu4Tyr, thus decreasing the FP value. The c-kit kinase reaction was incubated at room temperature for 45 minutes under the following conditions: 1 nM c-kit (ProQinase, lot SP005), 100 ug/mL poly Glu4Tyr, 50 uM ATP, 5 mM MgCl2, 1 mM DTT, 0.01% Tween-20, 1% DMSO or compound in […], pH 7.5. The kinase reaction was stopped with the addition of EDTA. The fluorescein-labeled phosphopeptide and the anti-phosphotyrosine antibody were added and incubated for 30 minutes at room temperature and fluorescence polarization was read. Data points were an average of triplicate samples.
(In general: In fluorescence polarisation assays a small probe gives low polarisation when free and higher when bound to something large.)
Turning to `CC(C)Oc1ccc(NC(=O)N2CCN(c3ncnc(N)c3/C=N/OCCN3CCOCC3)CC2)cc1` [Example 2, 4-{6-Amino-5-[(2-morpholin-4-yl-ethoxyimino)-methyl]-pyrimidin-4-yl}-piperazine-1-carboxylic acid (4-isopropoxy-phenyl)-amide], the IC50 – broadly, the concentration that inhibits the measured activity by half – was 26 nM. Consider `CCO/N=C/c1c(N)ncnc1N1CCN(C(=O)Nc2ccc(N3CCCCC3)cc2)CC1` [Example 11, 4-[6-Amino-5-(ethoxyimino-methyl)-pyrimidin-4-yl]-piperazine-1-carboxylic acid (4-piperidin-1-yl-phenyl)-amide], for which 5.1 nM corresponded to half-maximal inhibition (IC50).

For the molecule `CO/N=C/c1c(N)ncnc1N1CCN(C(=O)Nc2ccc(OC(C)C)cc2)CC1` [Example 1, 4-[6-Amino-5-(methoxyimino-methyl)-pyrimidin-4-yl]-piperazine-1-carboxylic acid (4-isopropoxy-phenyl)-amide], the IC50 was found to be 10.5 nM.

Another experiment addresses T2, TrkB (Homo sapiens, UniProt Q16620).
T2 construct: purchased Upstate 14-507M
In words: TrkB fluorescence polarization kinase assay. It is filed as biochemical. The note with it: 50 nM TrkB, 150 uM ATP, 30 minutes; uncertainty ±10%. The protocol:
The compounds of the present invention are also specific inhibitors of TrkB. Selection of preferred compounds of Formula I for use as TrkB inhibitors was performed in the following manner. The TrkB assay utilized the fluorescein-labeled phosphopeptide and the anti-phosphotyrosine antibody included in the Panvera Phospho-Tyrosine Kinase Kit (Green) supplied by Invitrogen. When TrkB phosphorylated poly Glu4Tyr, the fluorescein-labeled phosphopeptide was displaced from the anti-phosphotyrosine antibody by the phosphorylated poly Glu4Tyr, thus decreasing the FP value. The TrkB kinase reaction was incubated at room temperature for 30 minutes under the following conditions: 50 nM TrkB (Upstate, catalog # 14-507M), 20 ug/mL poly Glu4Tyr, 150 uM ATP, 5 mM MgCl2, 1% compound in DMSO. The kinase reaction was stopped with the addition of EDTA. The fluorescein-labeled phosphopeptide and the anti-phosphotyrosine antibody were added and incubated for 30 minutes at room temperature. Data points were an average of triplicate samples.
Molecule `CC(C)Oc1ccc(NC(=O)N2CCN(c3ncnc(N)c3/C=N/OCCN3CCOCC3)CC2)cc1` [Example 2, 4-{6-Amino-5-[(2-morpholin-4-yl-ethoxyimino)-methyl]-pyrimidin-4-yl}-piperazine-1-carboxylic acid (4-isopropoxy-phenyl)-amide] came in with an IC50 of 10100 nM.

The molecule `CO/N=C/c1c(N)ncnc1N1CCN(C(=O)Nc2ccc(C(C)C)cc2)CC1` [Example 8, 4-[6-Amino-5-(methoxyimino-methyl)-pyrimidin-4-yl]-piperazine-1-carboxylic acid (4-isopropyl-phenyl)-amide] yielded an IC50 of 1100 nM. Still for that read-out and setting: then `CO/N=C/c1c(N)ncnc1N1CCN(C(=O)Nc2ccc(Cl)cc2)CC1` [Example 20, 4-[6-Amino-5-(methoxyimino-methyl)-pyrimidin-4-yl]-piperazine-1-carboxylic acid (4-chloro-phenyl)-amide], with 15600 nM.

`CCO/N=C/c1c(N)ncnc1N1CCN(C(=O)Nc2ccc(N3CCCCC3)cc2)CC1` [Example 11, 4-[6-Amino-5-(ethoxyimino-methyl)-pyrimidin-4-yl]-piperazine-1-carboxylic acid (4-piperidin-1-yl-phenyl)-amide] registered an IC50 of 2600 nM. In turn, `CO/N=C/c1c(N)ncnc1N1CCN(C(=O)Nc2ccc(N3CCCCC3)cc2)CC1` [Example 4, 4-[6-Amino-5-(methoxyimino-methyl)-pyrimidin-4-yl]-piperazine-1-carboxylic acid (4-piperidin-1-yl-phenyl)-amide] yielded an IC50 of 4000 nM. Turning to `CCO/N=C/c1c(N)ncnc1N1CCN(C(=O)Nc2ccc(OC3CCC3)nc2)CC1` [Example 12, 4-[6-Amino-5-(ethoxyimino-methyl)-pyrimidin-4-yl]-piperazine-1-carboxylic acid (6-cyclobutoxy-pyridin-3-yl)-amide], 1600 nM corresponded to half-maximal inhibition (IC50). On to `CO/N=C/c1c(N)ncnc1N1CCN(C(=O)Nc2ccc(OC3CCCC3)nc2)CC1` [Example 17, 4-[6-Amino-5-(methoxyimino-methyl)-pyrimidin-4-yl]-piperazine-1-carboxylic acid (6-cyclopentyloxy-pyridin-3-yl)-amide], for which half-maximal inhibition (IC50) required 800 nM. Molecule `CC(C)Oc1ccc(NC(=O)N2CCN(c3ncnc(N)c3/C=N/OCCCO)CC2)cc1` [Example 3, 4-{6-Amino-5-[(3-hydroxy-propoxyimino)-methyl]-pyrimidin-4-yl}-piperazine-1-carboxylic acid (4-isopropoxy-phenyl)-amide] had an IC50 of 1300 nM.

In the case of `CO/N=C/c1c(N)ncnc1N1CCN(C(=O)Nc2ccc(N3CCCC3)cc2)CC1` [Example 18, 4-[6-Amino-5-(methoxyimino-methyl)-pyrimidin-4-yl]-piperazine-1-carboxylic acid (4-pyrrolidin-1-yl-phenyl)-amide], the IC50 is 2600 nM. `CO/N=C/c1c(N)ncnc1N1CCN(C(=O)Nc2ccc(Oc3ccccc3)cc2)CC1` [Example 21, 4-[6-Amino-5-(methoxyimino-methyl)-pyrimidin-4-yl]-piperazine-1-carboxylic acid (4-phenoxy-phenyl)-amide] registered an IC50 of 7400 nM. For `CO/N=C/c1c(N)ncnc1N1CCN(C(=O)Nc2ccc(OC(C)C)cc2)CC1` [Example 1, 4-[6-Amino-5-(methoxyimino-methyl)-pyrimidin-4-yl]-piperazine-1-carboxylic acid (4-isopropoxy-phenyl)-amide], half-maximal inhibition (IC50) required 800 nM.

In turn, `CO/N=C/c1c(N)ncnc1N1CCN(C(=O)Cc2ccc(C(C)C)cc2)CC1` [Example 7, 4-Amino-6-{4-[2-(4-isopropyl-phenyl)-acetyl]-piperazin-1-yl}-pyrimidine-5-carbaldehyde O-methyl-oxime] had an IC50 of 500 nM. On the same count and under the same terms, then `CCO/N=C/c1c(N)ncnc1N1CCN(C(=O)Nc2ccc(N3CCOCC3)cc2)CC1` [Example 15, 4-[6-Amino-5-(ethoxyimino-methyl)-pyrimidin-4-yl]-piperazine-1-carboxylic acid (4-morpholin-4-yl-phenyl)-amide], with 7760 nM; and `CO/N=C/c1c(N)ncnc1N1CCN(C(=O)Nc2ccc(C3CCCCC3)cc2)CC1` [Example 19, 4-[6-Amino-5-(methoxyimino-methyl)-pyrimidin-4-yl]-piperazine-1-carboxylic acid (4-cyclohexyl-phenyl)-amide], with 1680 nM. Turning to `CCO/N=C\c1c(N)ncnc1N1CCN(C(=O)Cc2ccc(C(C)C)cc2)CC1` [Example 14, 4-Amino-6-{4-[2-(4-isopropyl-phenyl)-acetyl]-piperazin-1-yl}-pyrimidine-5-carbaldehyde O-ethyl-oxime (syn-configuration for —C═N—O—)], the concentration for half-maximal inhibition (IC50) came out at 1400 nM. In the case of `CC(C)Oc1ccc(NC(=O)N2CCN(c3ncnc(N)c3/C=N/OCC(=O)N3CCOCC3)CC2)cc1` [Example 16, 4-{6-Amino-5-[(2-morpholin-4-yl-2-oxo-ethoxyimino)-methyl]-pyrimidin-4-yl}-piperazine-1-carboxylic acid (4-isopropoxy-phenyl)-amide], 11100 nM corresponded to half-maximal inhibition (IC50). `CCO/N=C/c1c(N)ncnc1N1CCN(C(=O)Nc2ccc(OC(C)C)cc2)CC1` [Example 9, 4-[6-Amino-5-(ethoxyimino-methyl)-pyrimidin-4-yl]-piperazine-1-carboxylic acid (4-isopropoxy-phenyl)-amide (anti-configuration for —C═N—O—)] gave a 50% inhibitory concentration (IC50) of 600 nM. As to `CCO/N=C/c1c(N)ncnc1N1CCN(C(=O)Cc2ccc(C(C)C)cc2)CC1` [Example 13, 4-Amino-6-{4-[2-(4-isopropyl-phenyl)-acetyl]-piperazin-1-yl}-pyrimidine-5-carbaldehyde O-ethyl-oxime (anti-configuration for —C═N—O—)], the IC50 is 2200 nM. On the same count and under the same terms, with `CCO/N=C\c1c(N)ncnc1N1CCN(C(=O)Nc2ccc(OC(C)C)cc2)CC1` [Example 10, 4-[6-Amino-5-(ethoxyimino-methyl)-pyrimidin-4-yl]-piperazine-1-carboxylic acid (4-isopropoxy-phenyl)-amide (syn-configuration for —C═N—O—)] the figure was 11000 nM; with `CO/N=C/c1c(N)ncnc1N1CCN(C(=O)Nc2ccc(N3CCOCC3)cc2)CC1` [Example 5, 4-[6-Amino-5-(methoxyimino-methyl)-pyrimidin-4-yl]-piperazine-1-carboxylic acid (4-morpholin-4-yl-phenyl)-amide], 8400 nM. On the same count and under the same terms, then `CO/N=C/c1c(N)ncnc1N1CCN(C(=O)Nc2ccc(OC3CCC3)nc2)CC1` [Example 6, 4-[6-Amino-5-(methoxyimino-methyl)-pyrimidin-4-yl]-piperazine-1-carboxylic acid (6-cyclobutoxy-pyridin-3-yl)-amide], with 3500 nM.
